Common to all, as to test: biochemical
What all share (set-up): Eurofins KinaseProfiler full panel at Km ATP, residual kinase activity (%) relative to DMSO

One experiment concerns the target AAK1(h) (Homo sapiens, UniProt Q2M2I8). The method in brief:
(§1)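 Radiometric kinase activity assays were run with ATP at Km and compounds at 10 µM, and remaining activity (%) was reported. A separate competitive binding screen measured DNA-tagged kinase displaced from immobilized active-site ligands by qPCR, giving percent kinase still bound at 10 µM compound in DMSO.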

The target in another experiment is T1, Aurora-B(h) (Homo sapiens, UniProt Q96GD4).
T1 construct: gene AURKB
T1 sequence (Q96GD4 whole entry): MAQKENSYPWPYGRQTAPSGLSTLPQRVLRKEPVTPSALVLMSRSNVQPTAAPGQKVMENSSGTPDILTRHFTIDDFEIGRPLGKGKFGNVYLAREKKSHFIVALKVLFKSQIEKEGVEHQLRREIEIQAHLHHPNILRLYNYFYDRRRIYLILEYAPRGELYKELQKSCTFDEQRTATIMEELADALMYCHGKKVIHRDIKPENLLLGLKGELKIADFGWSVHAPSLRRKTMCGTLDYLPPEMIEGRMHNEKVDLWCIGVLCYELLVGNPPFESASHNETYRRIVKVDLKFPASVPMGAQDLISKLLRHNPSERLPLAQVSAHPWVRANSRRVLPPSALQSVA
In a few lines: as §1

In a further experiment the target is T2, CK1γ1(h) (Homo sapiens, UniProt Q9HCP0).
T2 construct: gene CSNK1G1
T2 sequence (Q9HCP0 whole entry): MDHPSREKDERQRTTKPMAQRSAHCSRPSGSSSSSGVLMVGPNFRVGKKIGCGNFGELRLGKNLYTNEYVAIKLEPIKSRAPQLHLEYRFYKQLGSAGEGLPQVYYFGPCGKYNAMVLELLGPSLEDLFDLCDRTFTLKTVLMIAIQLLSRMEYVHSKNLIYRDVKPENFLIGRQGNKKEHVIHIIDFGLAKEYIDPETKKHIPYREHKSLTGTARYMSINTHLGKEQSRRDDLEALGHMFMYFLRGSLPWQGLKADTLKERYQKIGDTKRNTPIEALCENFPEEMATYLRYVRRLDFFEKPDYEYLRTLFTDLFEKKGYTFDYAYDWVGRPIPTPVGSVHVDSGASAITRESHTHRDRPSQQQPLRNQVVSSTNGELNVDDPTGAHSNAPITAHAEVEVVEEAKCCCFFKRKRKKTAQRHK
The method in brief: as §1

For another experiment, the target named is T3, CK1γ2(h) (Homo sapiens, UniProt P78368).
T3 construct: gene CSNK1G2
T3 sequence (P78368 whole entry): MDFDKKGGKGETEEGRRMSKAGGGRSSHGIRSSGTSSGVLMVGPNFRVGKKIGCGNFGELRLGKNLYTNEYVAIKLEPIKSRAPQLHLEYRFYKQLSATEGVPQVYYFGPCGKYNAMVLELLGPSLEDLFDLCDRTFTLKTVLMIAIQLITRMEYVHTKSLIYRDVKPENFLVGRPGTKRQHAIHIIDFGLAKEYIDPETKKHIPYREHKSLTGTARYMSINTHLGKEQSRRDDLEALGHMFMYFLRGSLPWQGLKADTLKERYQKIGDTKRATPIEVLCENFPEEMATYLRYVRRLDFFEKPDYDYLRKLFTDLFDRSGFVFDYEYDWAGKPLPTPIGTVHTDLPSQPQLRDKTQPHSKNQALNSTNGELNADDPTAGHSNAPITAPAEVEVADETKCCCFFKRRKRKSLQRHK
In a few lines:
as §1

The target in the next experiment is EphA4(h) (Homo sapiens, UniProt P54764). In a few lines:
as §1

The next experiment concerns the target HIPK3(h) (Homo sapiens, UniProt Q9H422). The method in brief:
as §1

For a further experiment, the target named is Lyn(h) (Homo sapiens, UniProt P07948). The method in brief:
as §1

Another experiment concerns the target T4, NLK(h) (Homo sapiens, UniProt Q9UBE8).
T4 sequence (Q9UBE8 1-527): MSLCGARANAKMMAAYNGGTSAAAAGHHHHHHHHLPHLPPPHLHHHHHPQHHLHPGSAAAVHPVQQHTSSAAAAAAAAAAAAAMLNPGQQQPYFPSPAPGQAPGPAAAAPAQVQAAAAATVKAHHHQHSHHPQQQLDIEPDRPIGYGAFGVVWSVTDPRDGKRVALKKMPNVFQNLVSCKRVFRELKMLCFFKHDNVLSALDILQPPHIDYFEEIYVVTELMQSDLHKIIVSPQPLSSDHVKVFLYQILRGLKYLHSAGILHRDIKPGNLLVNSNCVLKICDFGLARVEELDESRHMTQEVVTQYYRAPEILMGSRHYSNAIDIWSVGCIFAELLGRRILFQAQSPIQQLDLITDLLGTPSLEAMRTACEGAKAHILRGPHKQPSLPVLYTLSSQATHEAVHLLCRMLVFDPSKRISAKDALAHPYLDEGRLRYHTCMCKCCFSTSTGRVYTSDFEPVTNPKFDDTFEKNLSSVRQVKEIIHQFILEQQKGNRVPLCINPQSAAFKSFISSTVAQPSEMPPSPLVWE
In a few lines: as §1

For experiment [1], the target named is T5, PI3 Kinase (p110a/p65a)(m) (Mus musculus, UniProt P42337).
T5 construct: gene Pik3ca; with p65a
In a few lines:
as §1

Another experiment concerns the target T6, PKBβ(h) (Homo sapiens, UniProt P31751).
T6 construct: gene AKT2
The method in brief:
as §1

Another experiment deals with T7, PKCζ(h) (Homo sapiens, UniProt Q05513).
T7 construct: gene PRKCZ
T7 sequence (Q05513 1-592): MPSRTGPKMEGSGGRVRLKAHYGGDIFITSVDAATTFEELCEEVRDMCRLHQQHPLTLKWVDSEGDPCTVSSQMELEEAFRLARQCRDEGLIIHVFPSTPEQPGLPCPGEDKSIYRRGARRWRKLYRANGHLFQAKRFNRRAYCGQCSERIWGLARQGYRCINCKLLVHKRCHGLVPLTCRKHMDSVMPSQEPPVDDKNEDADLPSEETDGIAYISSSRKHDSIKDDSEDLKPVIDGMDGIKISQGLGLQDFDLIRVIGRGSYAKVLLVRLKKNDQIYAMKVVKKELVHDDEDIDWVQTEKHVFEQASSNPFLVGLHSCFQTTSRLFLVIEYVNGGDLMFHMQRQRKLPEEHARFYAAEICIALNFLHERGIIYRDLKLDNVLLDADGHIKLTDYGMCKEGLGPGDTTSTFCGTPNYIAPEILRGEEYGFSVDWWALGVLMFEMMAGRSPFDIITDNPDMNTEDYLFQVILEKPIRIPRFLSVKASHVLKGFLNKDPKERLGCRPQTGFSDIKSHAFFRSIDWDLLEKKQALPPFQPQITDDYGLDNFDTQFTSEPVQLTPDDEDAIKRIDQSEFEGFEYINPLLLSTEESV
In a few lines: as §1

The target in a further experiment is T8, Rsk1(r) (Rattus norvegicus, UniProt Q63531).
T8 construct: gene Rps6ka1
The method in brief: as §1

Another experiment deals with TNIK(h) (Homo sapiens, UniProt Q9UKE5). In a few lines: as §1
Chain of TNIK(h) (Q9UKE5 whole entry): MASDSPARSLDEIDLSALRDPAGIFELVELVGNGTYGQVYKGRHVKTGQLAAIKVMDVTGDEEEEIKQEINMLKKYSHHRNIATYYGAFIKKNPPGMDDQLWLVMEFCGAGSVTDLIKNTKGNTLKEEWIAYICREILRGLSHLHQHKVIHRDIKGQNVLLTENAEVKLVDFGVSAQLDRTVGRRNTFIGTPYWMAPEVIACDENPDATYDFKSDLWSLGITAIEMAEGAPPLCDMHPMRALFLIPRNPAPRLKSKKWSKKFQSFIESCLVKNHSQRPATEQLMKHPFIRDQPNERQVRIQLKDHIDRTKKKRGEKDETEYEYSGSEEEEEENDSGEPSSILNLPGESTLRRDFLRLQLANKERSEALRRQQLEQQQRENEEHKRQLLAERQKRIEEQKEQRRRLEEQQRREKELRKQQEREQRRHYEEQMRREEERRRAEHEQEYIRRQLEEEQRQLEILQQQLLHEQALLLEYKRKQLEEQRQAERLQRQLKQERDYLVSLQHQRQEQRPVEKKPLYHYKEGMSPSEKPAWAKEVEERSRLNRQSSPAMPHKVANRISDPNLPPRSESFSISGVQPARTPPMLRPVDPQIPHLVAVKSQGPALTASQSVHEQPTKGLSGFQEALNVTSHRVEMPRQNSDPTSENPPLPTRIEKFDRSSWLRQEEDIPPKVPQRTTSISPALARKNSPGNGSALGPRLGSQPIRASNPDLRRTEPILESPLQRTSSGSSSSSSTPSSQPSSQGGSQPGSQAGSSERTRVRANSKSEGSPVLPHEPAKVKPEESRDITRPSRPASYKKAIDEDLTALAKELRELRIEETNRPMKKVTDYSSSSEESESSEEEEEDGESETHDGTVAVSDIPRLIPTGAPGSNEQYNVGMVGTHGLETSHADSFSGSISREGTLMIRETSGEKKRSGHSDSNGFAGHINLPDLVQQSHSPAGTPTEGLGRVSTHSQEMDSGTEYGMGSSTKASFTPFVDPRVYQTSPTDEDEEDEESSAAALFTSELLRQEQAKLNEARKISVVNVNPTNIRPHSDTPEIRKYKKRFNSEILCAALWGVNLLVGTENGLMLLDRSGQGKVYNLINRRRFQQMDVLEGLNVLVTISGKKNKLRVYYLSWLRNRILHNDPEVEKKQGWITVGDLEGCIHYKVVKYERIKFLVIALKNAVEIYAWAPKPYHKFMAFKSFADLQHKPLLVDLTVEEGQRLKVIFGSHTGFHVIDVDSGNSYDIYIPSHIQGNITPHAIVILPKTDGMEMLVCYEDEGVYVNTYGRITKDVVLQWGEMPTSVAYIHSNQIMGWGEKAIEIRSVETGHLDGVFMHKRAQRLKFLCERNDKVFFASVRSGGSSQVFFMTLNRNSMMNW
The mark [2] stands for this setting: read-out: Residual activity (%) Spautin-1 5aa.
Setting [3] is: read-out: Residual activity (%) 5as.
The mark [4] stands for this setting: read-out: Residual activity (%) 5at.
Where [5] appears, read: read-out: Residual activity (%) 5ay.

Where two headings read alike, the source gives them in different places.

Chain of HIPK3(h) (Q9H422 whole entry): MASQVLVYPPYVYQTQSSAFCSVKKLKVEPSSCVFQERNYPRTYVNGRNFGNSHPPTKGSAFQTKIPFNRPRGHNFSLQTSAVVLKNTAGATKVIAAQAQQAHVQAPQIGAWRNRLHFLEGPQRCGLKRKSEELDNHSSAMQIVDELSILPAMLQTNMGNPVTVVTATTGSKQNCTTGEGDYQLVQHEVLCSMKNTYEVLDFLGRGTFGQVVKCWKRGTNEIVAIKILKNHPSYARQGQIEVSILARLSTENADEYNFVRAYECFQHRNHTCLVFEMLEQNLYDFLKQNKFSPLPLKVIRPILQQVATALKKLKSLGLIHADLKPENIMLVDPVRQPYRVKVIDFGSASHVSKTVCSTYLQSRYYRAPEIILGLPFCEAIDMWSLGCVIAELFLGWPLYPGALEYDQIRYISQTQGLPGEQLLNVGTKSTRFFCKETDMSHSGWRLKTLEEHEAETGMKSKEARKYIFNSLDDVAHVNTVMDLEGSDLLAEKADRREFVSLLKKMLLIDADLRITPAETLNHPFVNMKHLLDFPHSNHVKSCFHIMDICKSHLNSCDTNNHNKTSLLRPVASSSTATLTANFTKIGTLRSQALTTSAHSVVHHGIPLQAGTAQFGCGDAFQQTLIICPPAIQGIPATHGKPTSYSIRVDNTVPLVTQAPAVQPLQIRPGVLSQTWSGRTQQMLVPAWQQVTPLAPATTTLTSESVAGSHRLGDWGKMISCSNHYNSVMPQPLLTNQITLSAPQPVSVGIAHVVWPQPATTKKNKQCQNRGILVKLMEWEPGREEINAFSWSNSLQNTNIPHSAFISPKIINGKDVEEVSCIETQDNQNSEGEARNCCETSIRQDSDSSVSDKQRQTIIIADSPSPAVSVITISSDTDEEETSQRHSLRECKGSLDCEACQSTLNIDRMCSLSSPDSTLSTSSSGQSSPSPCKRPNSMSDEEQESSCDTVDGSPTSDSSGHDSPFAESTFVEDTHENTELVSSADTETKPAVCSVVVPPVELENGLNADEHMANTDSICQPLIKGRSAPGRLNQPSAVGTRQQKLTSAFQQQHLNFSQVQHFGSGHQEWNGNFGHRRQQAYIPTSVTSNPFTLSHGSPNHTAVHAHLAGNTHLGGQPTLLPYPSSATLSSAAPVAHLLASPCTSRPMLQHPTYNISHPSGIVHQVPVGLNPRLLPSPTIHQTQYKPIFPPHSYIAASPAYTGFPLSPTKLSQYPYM
Chain of AAK1(h) (Q2M2I8 whole entry): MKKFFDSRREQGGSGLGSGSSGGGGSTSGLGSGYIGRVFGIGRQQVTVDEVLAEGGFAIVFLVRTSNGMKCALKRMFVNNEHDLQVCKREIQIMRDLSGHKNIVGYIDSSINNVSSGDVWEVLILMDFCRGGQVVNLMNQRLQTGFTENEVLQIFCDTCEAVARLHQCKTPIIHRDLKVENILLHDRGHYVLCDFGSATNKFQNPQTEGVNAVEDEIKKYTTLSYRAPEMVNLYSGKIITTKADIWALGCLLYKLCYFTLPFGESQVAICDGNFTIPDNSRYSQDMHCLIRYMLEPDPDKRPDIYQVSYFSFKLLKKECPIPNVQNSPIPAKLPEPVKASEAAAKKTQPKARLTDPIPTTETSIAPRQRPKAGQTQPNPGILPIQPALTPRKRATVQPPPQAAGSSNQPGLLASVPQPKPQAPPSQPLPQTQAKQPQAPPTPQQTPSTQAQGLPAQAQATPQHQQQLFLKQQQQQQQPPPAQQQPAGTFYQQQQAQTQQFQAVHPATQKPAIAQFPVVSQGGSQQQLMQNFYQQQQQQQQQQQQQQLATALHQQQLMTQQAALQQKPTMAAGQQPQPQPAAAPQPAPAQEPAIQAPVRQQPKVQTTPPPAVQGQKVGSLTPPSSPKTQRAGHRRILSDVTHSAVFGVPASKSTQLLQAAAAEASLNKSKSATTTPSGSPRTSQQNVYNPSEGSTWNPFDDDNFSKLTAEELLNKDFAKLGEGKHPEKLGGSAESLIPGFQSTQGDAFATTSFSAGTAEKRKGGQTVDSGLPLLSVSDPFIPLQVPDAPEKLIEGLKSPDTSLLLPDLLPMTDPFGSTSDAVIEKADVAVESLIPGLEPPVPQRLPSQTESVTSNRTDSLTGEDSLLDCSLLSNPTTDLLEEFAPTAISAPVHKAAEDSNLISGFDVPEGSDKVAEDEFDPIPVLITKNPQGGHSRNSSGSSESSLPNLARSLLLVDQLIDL

For the compound `Fc1ccc(CNc2ncnc3ccc(F)cc23)cc1` [5aa, 6-Fluoro-N-(4-fluorobenzyl)-4-Quinazolinamine], the remaining activity at 10 µM on AAK1(h) (setting [2]) worked out at 95%; at Aurora-B(h) (setting [2]), 85%; at CK1γ1(h) (setting [2]) it was 99%; on CK1γ2(h) (setting [2]), 84%; on EphA4(h) (setting [2]), 89%; at HIPK3(h) (setting [2]) it was 93%. Besides, the remaining activity at 10 µM on Lyn(h) (setting [2]) is 103%; on NLK(h) (setting [2]), 85%; in experiment [1] (setting [2]), 98%; at PKBβ(h) (setting [2]), 106%; on PKCζ(h) (setting [2]) it was 85%; on Rsk1(r) (setting [2]), 117%. In addition, the remaining activity at 10 µM on TNIK(h) (setting [2]) is 72%.
With `Fc1ccc(CCNc2ncnc3ccc(F)cc23)cc1` [5as, 6-Fluoro-N-[2-(4-Fluorophenyl)Ethyl]-4-Quinazolinamine], the remaining activity at 10 µM was found to be 81% at AAK1(h) (setting [3]); 69% at Aurora-B(h) (setting [3]); 80% at CK1γ1(h) (setting [3]); 72% on CK1γ2(h) (setting [3]); 83% at EphA4(h) (setting [3]); 98% at HIPK3(h) (setting [3]). Also, the remaining activity at 10 µM on Lyn(h) (setting [3]) was determined as 89%; on NLK(h) (setting [3]), 93%; in experiment [1] (setting [3]) it was 86%; on PKBβ(h) (setting [3]), 84%; on PKCζ(h) (setting [3]), 75%; at Rsk1(r) (setting [3]), 130%. The remaining activity at 10 µM on TNIK(h) (setting [3]) amounted to 83%.
For `Fc1ccc2ncnc(NCCc3ccc(Cl)cc3)c2c1` [5at, N-[2-(4-Chlorophenyl)Ethyl]-6-Fluoro-4-Quinazolinamine], the remaining activity at 10 µM at AAK1(h) (setting [4]) came to 72%; at Aurora-B(h) (setting [4]), 48%; at CK1γ1(h) (setting [4]), 80%; on CK1γ2(h) (setting [4]), 76%; on EphA4(h) (setting [4]) it was 80%; at HIPK3(h) (setting [4]), 95%. For the same compound, the remaining activity at 10 µM on Lyn(h) (setting [4]) was 91%; at NLK(h) (setting [4]) it was 82%; in experiment [1] (setting [4]), 87%; on PKBβ(h) (setting [4]) it was 75%; on PKCζ(h) (setting [4]), 71%; at Rsk1(r) (setting [4]), 113%. Further, on TNIK(h) (setting [4]), the remaining activity at 10 µM came to 63%.
Take `COc1ccc2ncnc(Nc3cccc(F)c3)c2c1` [5ay, N-(3-Fluorophenyl)-6-Methoxy-4-Quinazolinamine]: the remaining activity at 10 µM was determined as 53% at AAK1(h) (setting [5]); 59% on Aurora-B(h) (setting [5]); 94% on CK1γ1(h) (setting [5]); 62% on CK1γ2(h) (setting [5]); 86% at EphA4(h) (setting [5]); 84% at HIPK3(h) (setting [5]). Further, the remaining activity at 10 µM was 80% at Lyn(h) (setting [5]); 80% at NLK(h) (setting [5]); 101% in experiment [1] (setting [5]); 106% on PKBβ(h) (setting [5]); 91% on PKCζ(h) (setting [5]); 129% at Rsk1(r) (setting [5]). For the same compound, the remaining activity at 10 µM on TNIK(h) (setting [5]) worked out at 65%.

Values taken from PMC7827406, “Structure–Activity Relationship (SAR) Study of Spautin-1 to Entail the Discovery of Novel NEK4 Inhibitors” (International Journal of Molecular Sciences, 2021).
